What was measured:
[1] = Hygroscopicity, dynamic water vapour sorption (DVS 1000); type: physicochemical; conditions: for Change In Mass (%): 25° C.; for hygroscopicity (in words): when exposed to humidity
Experimental: Hygroscopicity tests were performed by means of a DVS 1000 apparatus (SMS) allowing dynamic water vapour sorption analysis. Multiple sorption/desorption cycles between 0% and 90% RH were performed at 25° C.
The equipment is a “controlled atmosphere microbalance” where the weighed sample is exposed to controlled variations of the relative humidity (RH) at a constant temperature.

[2] = test system: liver metastases from M5076 murine fibrosarcoma; conditions: oral administration; cited from earlier work
[3] = test system: tumor cells resistant to alkylating agents or topoisomerase II inhibitors; conditions: cells resistant to alkylating agents (melphalan, cisplatin) or topoisomerase II inhibitors (etoposide); cited from earlier work
[4] = in the presence of mouse, rat and human liver microsomes; cited from earlier work
[5] = test system: experimental tumors (animal models); conditions: cited from earlier work

SMILES: COc1cccc2c1C(=O)c1c(O)c3c(c(O)c1C2=O)C[C@@](O)(C(=O)CO)C[C@@H]3O[C@H]1C[C@H](N2CCO[C@H](OC)C2)[C@H](O)[C@H](C)O1.Cl [Amorphous, (8S-cis,2″S)-7,8,9,10-tetrahydro-6,8,11-trihydroxy-8-(hydroxyacetyl)-1-methoxy-10-{[2,3,6-trideoxy-3-(2-methoxy-4-morpholinyl)-α-L-lyxo-hexopyranosyl]oxy}-5,12-naphthacenedione hydrochloride]
- Change In Mass (%) ([1]; Relative Humidity 3.1%, hydrochloride): 0.30%
- Change In Mass (%) ([1]; Relative Humidity 6.2%, hydrochloride): 0.83%
- Change In Mass (%) ([1]; Relative Humidity 9.3%, hydrochloride): 1.35%
- Change In Mass (%) ([1]; Relative Humidity 12.4%, hydrochloride): 1.93%
- Change In Mass (%) ([1]; Relative Humidity 15.5%, hydrochloride): 2.45%
- Change In Mass (%) ([1]; Relative Humidity 18.6%, hydrochloride): 2.92%
- Change In Mass (%) ([1]; Relative Humidity 21.7%, hydrochloride): 3.37%
- Change In Mass (%) ([1]; Relative Humidity 24.8%, hydrochloride): 3.79%
- Change In Mass (%) ([1]; Relative Humidity 27.9%, hydrochloride): 4.19%
- Change In Mass (%) ([1]; Relative Humidity 31.0%, hydrochloride): 4.62%
- Change In Mass (%) ([1]; Relative Humidity 34.1%, hydrochloride): 5.08%
- Change In Mass (%) ([1]; Relative Humidity 37.2%, hydrochloride): 5.52%
- Change In Mass (%) ([1]; Relative Humidity 40.3%, hydrochloride): 5.96%
- Change In Mass (%) ([1]; Relative Humidity 43.5%, hydrochloride): 6.43%
- Change In Mass (%) ([1]; Relative Humidity 46.6%, hydrochloride): 6.90%
- Change In Mass (%) ([1]; Relative Humidity 49.7%, hydrochloride): 7.37%
- Change In Mass (%) ([1]; Relative Humidity 52.8%, hydrochloride): 7.88%
- Change In Mass (%) ([1]; Relative Humidity 55.9%, hydrochloride): 8.36%
- Change In Mass (%) ([1]; Relative Humidity 59.0%, hydrochloride): 8.92%
- Change In Mass (%) ([1]; Relative Humidity 62.1%, hydrochloride): 9.46%
- Change In Mass (%) ([1]; Relative Humidity 65.2%, hydrochloride): 10.10%
- Change In Mass (%) ([1]; Relative Humidity 68.3%, hydrochloride): 10.85%
- Change In Mass (%) ([1]; Relative Humidity 71.4%, hydrochloride): 11.69%
- Change In Mass (%) ([1]; Relative Humidity 74.5%, hydrochloride): 12.67%
- Change In Mass (%) ([1]; Relative Humidity 77.6%, hydrochloride): 14.01%
- Change In Mass (%) ([1]; Relative Humidity 80.7%, hydrochloride): 15.76%
- Change In Mass (%) ([1]; Relative Humidity 83.8%, hydrochloride): 18.09%
- Change In Mass (%) ([1]; Relative Humidity 86.9%): 21.51%
- Change In Mass (%) ([1]; Relative Humidity 90.0%, hydrochloride): 26.66%
- hygroscopicity (in words) ([1]; listed as nemorubicin amorphous, hydrochloride): highly hygroscopic

SMILES: COc1cccc2c1C(=O)c1c(O)c3c(c(O)c1C2=O)C[C@@](O)(C(=O)CO)C[C@@H]3O[C@H]1C[C@H](N2CCO[C@H](OC)C2)[C@H](O)[C@H](C)O1.Cl [Form A, nemorubicin hydrochloride dihydrate]
- Change In Mass (%) ([1]; Relative Humidity 0.0%): 0.00%
- Change In Mass (%) ([1]; Relative Humidity 3.1%, hydrochloride dihydrate): 1.92%
- Change In Mass (%) ([1]; Relative Humidity 6.2%, hydrochloride dihydrate): 3.53%
- Change In Mass (%) ([1]; Relative Humidity 9.3%, hydrochloride dihydrate): 3.82%
- Change In Mass (%) ([1]; Relative Humidity 12.4%, hydrochloride dihydrate): 4.02%
- Change In Mass (%) ([1]; Relative Humidity 15.5%, hydrochloride dihydrate): 4.17%
- Change In Mass (%) ([1]; Relative Humidity 18.6%, hydrochloride dihydrate): 4.29%
- Change In Mass (%) ([1]; Relative Humidity 21.7%, hydrochloride dihydrate): 4.39%
- Change In Mass (%) ([1]; Relative Humidity 24.8%, hydrochloride dihydrate): 4.49%
- Change In Mass (%) ([1]; Relative Humidity 27.9%, hydrochloride dihydrate): 4.57%
- Change In Mass (%) ([1]; Relative Humidity 31.0%, hydrochloride dihydrate): 4.65%
- Change In Mass (%) ([1]; Relative Humidity 34.1%, hydrochloride dihydrate): 4.71%
- Change In Mass (%) ([1]; Relative Humidity 37.2%, hydrochloride dihydrate): 4.77%
- Change In Mass (%) ([1]; Relative Humidity 40.3%, hydrochloride dihydrate): 4.82%
- Change In Mass (%) ([1]; Relative Humidity 43.5%, hydrochloride dihydrate): 4.86%
- Change In Mass (%) ([1]; Relative Humidity 46.6%, hydrochloride dihydrate): 4.91%
- Change In Mass (%) ([1]; Relative Humidity 49.7%, hydrochloride dihydrate): 4.95%
- Change In Mass (%) ([1]; Relative Humidity 52.8%, hydrochloride dihydrate): 5.01%
- Change In Mass (%) ([1]; Relative Humidity 55.9%, hydrochloride dihydrate): 5.07%
- Change In Mass (%) ([1]; Relative Humidity 59.0%, hydrochloride dihydrate): 5.13%
- Change In Mass (%) ([1]; Relative Humidity 62.1%, hydrochloride dihydrate): 5.19%
- Change In Mass (%) ([1]; Relative Humidity 65.2%, hydrochloride dihydrate): 5.25%
- Change In Mass (%) ([1]; Relative Humidity 68.3%, hydrochloride dihydrate): 5.31%
- Change In Mass (%) ([1]; Relative Humidity 71.4%, hydrochloride dihydrate): 5.38%
- Change In Mass (%) ([1]; Relative Humidity 74.5%, hydrochloride dihydrate): 5.46%
- Change In Mass (%) ([1]; Relative Humidity 77.6%, hydrochloride dihydrate): 5.52%
- Change In Mass (%) ([1]; Relative Humidity 80.7%, hydrochloride dihydrate): 5.58%
- Change In Mass (%) ([1]; Relative Humidity 83.8%, hydrochloride dihydrate): 5.66%
- Change In Mass (%) ([1]; Relative Humidity 86.9%, hydrochloride dihydrate): 5.75%
- Change In Mass (%) ([1]; Relative Humidity 90.0%, hydrochloride dihydrate): 5.85%
- RH at which the two moles of water lost on desorption are re-adsorbed ([1]; after a desorption cycle): 30%
- change in mass ([1]; at about 55% RH): about 5%
- hygroscopicity (in words) ([1]; hydrochloride dihydrate): non hygroscopic

SMILES: COc1cccc2c1C(=O)c1c(O)c3c(c(O)c1C2=O)C[C@@](O)(C(=O)CO)C[C@@H]3O[C@H]1C[C@H](N2CCO[C@H](OC)C2)[C@H](O)[C@H](C)O1 [nemorubicin, 3′ des amino-3′ [2(S)methoxy-4-morpholinyl] doxorubicin]
- survival time (best result) [2]: doubling of survival time
- cross-resistance [3]: no cross-resistance was observed
- cytotoxic activity in vitro [4]: increased
- optimal i.v. dose, fold less than that of doxorubicin ([5]; i.v., in vivo): at least 80 fold
- oral doses giving antitumor activity comparable to i.v., fold higher than the effective i.v. doses ([5]; oral vs i.v., all the animal models examined): 1.3-2 fold

— patent US20100069317A1, “CRYSTALLINE NEMORUBICIN HYDROCHLORIDE” (NERVIANO MEDICAL SCIENCES S.R.L., priority 2006, published 2010)
